Source: patent US10881642B2, “Autophagy enhancer and use thereof” (Industry-Academic Cooperation Foundation, Yonsei University, priority 2016, dated 2021)

Tested on: INS-1 cells transfected with prepro-hIAPP-HA
Assay: pro-hIAPP accumulation and apoptosis in transfected INS-1 cells
Assay type: cell-based, mice
Conditions: for accumulation of pro-hIAPP dimers: western blot, anti-HA
Description: (FIG. 13A) INS-1 cells transfected with non-amyloidogenic prepro-mIAPP-HA or amyloidogenic prepro-hIAPP-HA construct were treated with MSL or MSL-7 followed by western blot analysis using anti-HA antibody. (FIG. 13B) the transfected cells of (FIG. 13A) were treated with MSL-7 in the presence or absence of bafilomycin followed by western blot analysis using anti-HA antibody. (FIG. 13C) The transfected cells were treated with MSL-7 in the presence or absence of 3-MA, after which the amount of […] contained in the cell lysates were measured. (FIG. 13D) HFD-fed hIAPP+ mice were administered with MSL-7, and non-fasting glucose level was monitored. (FIG. 13E) IPGTT. (FIG. 13F) HFD-fed hIAPP+ mice were administered with MSL-7 for 8 weeks and the insulinogenic index was measured. (FIG. 13G) HFD-fed hIAPP+ mice were administered with MSL-7 for 8 weeks and the pancreatic section was obtained. All antibody was used for immunohistochemistry (left). The percentage of A11-[…] cells among DAPI+ cells (right). (FIG. 13H) FSB stained pancreatic section of HFD-fed hIAPP+ mice administered with MSL-7 for 8 weeks (left). Average fluorescence intensity/area (right).
Screening of autophagy enhancer. […] Luciferase assay. […] Firefly luciferase was determined after mixing 5 μl of lysate with 25 μl of Luciferase Assay Reagent II. Renilla luciferase was then determined after further addition of 20 ul of Stop&Glo Reagent. […] Cytotoxicity was determined by the measurement of LDH release in cell culture media using the LDH kit (Roche), according to the protocol from the manufacturer. […] Imaging and image quantification. […] Formation of acidic vesicular organelles was quantitated by staining the cells with acridine orange (Invitrogen, 5 ug/ml, 10 min). […] Cells or tissues were solubilized in lysis buffer supplemented with protease and phosphatase inhibitors and protein concentration was measured by the Bradford method. Ten to 30 micrograms were loaded on 4-12% Bis-Tris gel (NUPAGE, Invitrogen) or 8-15% SDS-PAGE, transferred to PVDF membranes and analyzed by western blot using the ECL method (Pierce). […]

Structure (SMILES)	apoptosis of cells transfected with prepro-hIAPP (in the presence of 3-MA)	accumulation of pro-hIAPP dimers
COc1oc(-c2ccccc2Cl)nc1S(=O)(=O)c1ccccc1 [MSL-7, 2-(2-chlorophenyl)-5-methoxy-4-(phenylsulfonyl) oxazole]	significantly reduced	reduced
CSc1oc(-c2ccccc2)nc1S(=O)(=O)c1ccc(F)cc1 [MSL]	–	reduced
